Assays:
[1] = system: HBsAg; details: HepG2.2.15 cells; for EC50: read-out: EC50, Extracell. HBsAg reduction
Protocol: (§1) Cell viability was assessed by ATP levels determined using the CellTiter-Glo reagent and the results normalized to the level in mock-treated cells. HBsAg levels were quantified using ELISA and the data normalized to the level in the mock-treated cells.
The cellular proteins GRP78/BIP, SRSF1, HNRNPA2B1, RPLP1, and RPLP2 were identified as having roles in HBV replication and infection. Various siRNAs and combinations thereof targeting the RNAs encoding these proteins were contacted with HepG2.2.15 cells at a final concentration of 7.5 nM.
The EC50 values of several siRNAs and combinations of siRNAs targeting HNRNPA2B1, GRP78, RPLP1, RPLP2, and/or SRSF1 were determined with respect to the ability to reduce HBsAg levels in HepG2.2.15 cells.
(§2) The ability of siRNAs targeting host factors that then results in the reduced production of multiple HBV molecules was evaluated by quantifying the amount of HBsAg, HBeAg, and Core protein produced by HepG2.2.15 cells after contacting with 10 nM of siRNAs that target HNRNPA2B1, GRP78, RPLP1, RPLP2, and SRSF1. We also contacted the cells with 5 nM of each set of siRNAs that targets both RPLP1 and RPLP2. The level of HBsAg, HBeAg, and Core were all determined using ELISAs.
(§3) The library of siRNAs of Example A5 were tested for the reduction of HBsAg secreted by HepG2.2.15 cells and in HBV virions.

[2] = system: RPLP1 protein; assay: Target protein reduction by Western blot in HepG2.2.15 cells; type: cell-based, human; details: 10 nM siRNA, 72 h
Protocol: (§4) The host factors likely function in viral infection as proteins. Therefore, we determined whether the siRNAs could decrease the amounts of the target protein. Cell transfected with 10 nM of each siRNA for 72 h were lysed and the target proteins identified using Western blots probed with target-specific antibodies. The effective siRNAs described in Table 3 reduced the levels of the proteins by between 28 and 92% of the mock-treated samples. The reduction in the proteins is less than the reduction of the target mRNA, likely due to the proteins have prolonged half-life and that more time is needed for their degradation. […] We reason that this is due to RPLP1 and RPLP2 functioning as heterodimers such that a decrease of one protein increases the vulnerability of the other protein to degradation. Similar concomitant decrease of the proteins was reported by Campos et al. (17). Finally, the levels of two cellular proteins that are not targeted by the siRNAs, P54nrb and GAPDH, were unaffected.

[3] = system: HCoV-OC43; assay: OC43 virion RNA, Branched DNA assay, infected HCT8 cells; type: cell-based, human coronavirus OC43; details: for OC43 vRNA reduction siRNA and siGRP78: 10 nM siRNA along with 10 nM of siRNA targeting GRP78, HCT8 cells; for OC43 vRNA reduction: 10 nM siRNA, HCT8 cells
Protocol: The siRNAs were transfected in the HCT8 cells at a final concentration of 10 nM. A positive control for the inhibition of Coronavirus infection, Remdesivir (Rem), was used at 0.9 μM. The virion RNAs (vRNAs) were quantified using a Branched DNA assay specific for OC43 RNA.
The two siRNAs are those referred to by compound number (see Table 2) in the horizontal bar, along with siRNA targeting GRP78, siGRP78. A positive control for the inhibition of Coronavirus infection, Remdesivir (Rem), was used at 0.9 μM. The vRNAs were quantified using a Branched DNA assay specific for OC43 RNA.
The siRNAs listed in Table 2 were transfected into human colon epithelial HCT8 cells and the amount of OC43 virion produced was quantified. In these assays, the OC43 vRNA was quantified using a Branched DNA assay (QuantiGene gene expression assay: ThermoFisher). As a positive inhibitory control, the infected cells were treated with Remdesivir. […] Examples of the inhibition of OC43 vRNA are illustrated in FIG. 5A.
A combination of siRNAs targeting the host factor should more robustly reduce OC43 virion production. To illustrate this, HCT8 cells were transfected with 10 nM of siRNAs from Table 2 along with 10 nM of siRNA targeting GRP78. The virion RNAs produced were quantified using the Branched DNA assay. […] A combination of siRNAs targeting host factors GRP78, SRSF1, RPLP1 and RPLP2 can lead to significant reduction in the production of human Coronavirus virion RNA from infected cells.

[4] = system: HepG2.2.15 cells; assay: HepG2.2.15 cell viability, CellTiter-Glo; details: for CC50: read-out: CC50, HepG2.2.15 cell viability, highest concentration tested 80 nM
Protocol: as §1
The effects on cell viability were quantified using the CellTiter-Glo reagent. All data were normalized to the amount of protein produced by mock-treated cells.
as §3

[5] = system: RPLP1 mRNA; assay: Target mRNA reduction by RT-qPCR in HepG2.2.15 cells; type: cell-based, human; details: 10 nM siRNA
Text: (§5) The siRNAs identified as described in Example A6 should function by a mechanism that includes being loaded in the RISC complex to cleave the cognate mRNA, leading to the degradation of the mRNA. To examine whether the siRNAs are effective in reducing the target mRNA, we used reverse transcription coupled with quantitative polymerase chain reaction (RT-qPCR) to assess the level of the target mRNA in HepG2.2.15 cells. All 32 siRNAs described in Table 2 reduced the mRNA by more than 75% (Table 3).

[6] = system: HBeAg; details: for HBeAg reduction HepG2.2.15 cells: 10 nM siRNA transfected into cells
Protocol: HBeAg in the cell culture media was assessed using ELISAs.
as §2, §3

[7] = system: RPLP2 protein; assay: Target protein reduction by Western blot in HepG2.2.15 cells; type: cell-based, human; details: 10 nM siRNA, 72 h
Protocol: as §4

[8] = system: RPLP2 mRNA; assay: Target mRNA reduction by RT-qPCR in HepG2.2.15 cells; type: cell-based, human; details: 10 nM siRNA
Text: as §5

31 (UUUGGCCUGGCUUGUUUGCAAUUUUGCAAACAAGCCAGGCCAAAUU; siRNA; Self-complementary hairpin strand, chemistry not given here, further chemistry not given here; listed as Homo sapiens) [compound 31]
EC50 [1]: 0.012 nM | Target protein reduction in HepG2.2.15 cells [2]: 37 ± 7% | OC43 vRNA reduction siRNA and siGRP78 [3]: 82 ± 6% | OC43 vRNA reduction [3]: 82 ± 4% | CC50 [4]: > 80 nM | Target RNA reduction in HepG2.2.15 cells [5]: 84 ± 4%

26 (GAAGCAAAGAAAGAAGAAUCCTTAUUCUUCUUUCUUUGCUUCCATT; siRNA; Self-complementary hairpin strand, chemistry not given here, further chemistry not given here; listed as Homo sapiens) [compound 26]
EC50 [1]: 0.376 nM | Target protein reduction in HepG2.2.15 cells [2]: 72 ± 17% | HBeAg reduction HepG2.2.15 cells [6]: 64 ± 3% | OC43 vRNA reduction siRNA and siGRP78 [3]: 95 ± 1% | OC43 vRNA reduction [3]: 91 ± 3% | CC50 [4]: > 80 nM | Target RNA reduction in HepG2.2.15 cells [5]: 86 ± 1%

34 (GCUGAAUGGAAAAAACAUUGATTAAUGUUUUUUCCAUUCAGCUCTT; siRNA; Self-complementary hairpin strand, chemistry not given here, further chemistry not given here; listed as Homo sapiens) [compound 34]
HBsAg level, dose response ([1]; FIG. 5A): dose-dependent reduction of HBV S-antigen (HBsAg) | EC50 [1]: 0.15 nM | Target protein reduction in HepG2.2.15 cells [7]: 62.5 ± 3% | HBeAg reduction HepG2.2.15 cells [6]: 74 ± 4% | HBeAg level, siRNA library ([6]; HepG2.2.15 cells, Example A6, FIG. 5A): inhibited the levels of HBsAg and HBeAg | OC43 vRNA reduction siRNA and siGRP78 [3]: 86 ± 5% | OC43 vRNA reduction [3]: 86 ± 3% | CC50 [4]: > 80 nM | cytotoxicity / cell viability, siRNA library ([4]; up to the highest concentration tested, 80 nM): without affecting cell viability | Target RNA reduction in HepG2.2.15 cells [8]: 93 ± 1%

33 (UUGGUCUUUUUGACUAAACCUUUAGGUUUAGUCAAAAAGACCAAUU; siRNA; Self-complementary hairpin strand, chemistry not given here, further chemistry not given here; listed as Homo sapiens) [compound 33]
EC50 [1]: 1.54 nM | Target protein reduction in HepG2.2.15 cells [2]: 28 ± 4% | CC50 [4]: > 80 nM | Target RNA reduction in HepG2.2.15 cells [5]: 83 ± 6%

40 (AGUCUGAAGAGUCAGAUGAUGUUCAUCAUCUGACUCUUCAGACUUU; siRNA; Self-complementary hairpin strand, chemistry not given here, further chemistry not given here; listed as Homo sapiens) [compound 40]
EC50 [1]: 0.114 nM | Target protein reduction in HepG2.2.15 cells [7]: 54 ± 2% | HBeAg reduction HepG2.2.15 cells [6]: 56 ± 3% | OC43 vRNA reduction siRNA and siGRP78 [3]: 79 ± 15% | OC43 vRNA reduction [3]: 89 ± 5% | CC50 [4]: > 80 nM | Target RNA reduction in HepG2.2.15 cells [8]: 98 ± 1%

41 (AUGGGAUUUGGCCUUUUUGAUUUAUCAAAAAGGCCAAAUCCCAUUU; siRNA; Self-complementary hairpin strand, chemistry not given here, further chemistry not given here; listed as Homo sapiens) [compound 41]
EC50 [1]: 0.208 nM | Target protein reduction in HepG2.2.15 cells [7]: 58 ± 2% | HBeAg reduction HepG2.2.15 cells [6]: 40 ± 4% | OC43 vRNA reduction siRNA and siGRP78 [3]: 81 ± 7% | OC43 vRNA reduction [3]: 89 ± 5% | CC50 [4]: > 80 nM | Target RNA reduction in HepG2.2.15 cells [8]: 97 ± 1%

48 (GCGCCAAGGACAUCAAGAATTUUCUUGAUGUCCUUGGCGCAA; siRNA; Self-complementary hairpin strand, chemistry not given here, further chemistry not given here; listed as Homo sapiens) [compound 48]
EC50 [1]: 0.1 nM | Target protein reduction in HepG2.2.15 cells [7]: 54 ± 8% | HBeAg reduction HepG2.2.15 cells [6]: 32 ± 5% | OC43 vRNA reduction siRNA and siGRP78 [3]: 88 ± 5% | CC50 [4]: > 80 nM | Target RNA reduction in HepG2.2.15 cells [8]: 97 ± 0%

36 (CCUUUUUGAUUAAAUUCCUGCTTAGGAAUUUAAUCAAAAAGGCCTT; siRNA; Self-complementary hairpin strand, chemistry not given here, further chemistry not given here; listed as Homo sapiens) [compound 36]
EC50 [1]: 9.2 nM | Target protein reduction in HepG2.2.15 cells [7]: 57 ± 3% | HBeAg reduction HepG2.2.15 cells [6]: 26 ± 5% | OC43 vRNA reduction siRNA and siGRP78 [3]: 87 ± 6% | CC50 [4]: > 80 nM | Target RNA reduction in HepG2.2.15 cells [8]: 94 ± 1%

37 (CUGAAUGGAAAAAACAUUGAAUUUUCAAUGUUUUUUCCAUUCAGUU; siRNA; Self-complementary hairpin strand, chemistry not given here, further chemistry not given here; listed as Homo sapiens) [compound 37]
EC50 [1]: 0.049 nM | Target protein reduction in HepG2.2.15 cells [7]: 71 ± 10% | HBeAg reduction HepG2.2.15 cells [6]: 53 ± 3% | OC43 vRNA reduction siRNA and siGRP78 [3]: 88 ± 5% | OC43 vRNA reduction [3]: 94 ± 2% | CC50 [4]: > 80 nM | Target RNA reduction in HepG2.2.15 cells [8]: 98 ± 1%

44 (UGAGCUGAAUGGAAAAAACAUUUAUGUUUUUUCCAUUCAGCUCAUU; siRNA; Self-complementary hairpin strand, chemistry not given here, further chemistry not given here; listed as Homo sapiens) [compound 44]
EC50 [1]: 0.084 nM | Target protein reduction in HepG2.2.15 cells [7]: 59 ± 11% | HBeAg reduction HepG2.2.15 cells [6]: 30 ± 4% | OC43 vRNA reduction siRNA and siGRP78 [3]: 92 ± 2% | CC50 [4]: > 80 nM | Target RNA reduction in HepG2.2.15 cells [8]: 99 ± 1%

42 (CCCAGCGCCAAGGACAUCAAGUUCUUGAUGUCCUUGGCGCUGGGUU; siRNA; Self-complementary hairpin strand, chemistry not given here, further chemistry not given here; listed as Homo sapiens) [compound 42]
EC50 [1]: 0.385 nM | Target protein reduction in HepG2.2.15 cells [7]: 50 ± 4% | HBeAg reduction HepG2.2.15 cells [6]: 42 ± 2% | OC43 vRNA reduction siRNA and siGRP78 [3]: 85 ± 7% | OC43 vRNA reduction [3]: 57 ± 5% | CC50 [4]: > 80 nM | Target RNA reduction in HepG2.2.15 cells [8]: 95 ± 1%
